Measurements from article PMC5285380, “Differential Ability of Bovine Antimicrobial Cathelicidins to Mediate Nucleic Acid Sensing by Epithelial Cells” (Frontiers in Immunology, 2017).
≈ marks a conversion by molar mass, not a printed value. Bridge positions count the residues as written; N and C are the ends. Ends that are not written are not given here. Peptide text beside a SMILES is read from it.

Legend:
Format in all cases: cell-based
[1] = system: Staphylococcus aureus M905-1
Source text: (§1) All bacterial strains including S. aureus strains (M3842, M905-1, and M3850) ([22]), S. uberis strains (M100/11, BL246, and ALP8092) ([23]) and E. coli (9217/10) were isolated from bovine mastitis milk ([24]). All strains were maintained on Trypticase soy agar plates with 5% sheep blood (Becton Dickinson AG, Allschwil, Switzerland) and always freshly plated the day before the experiment. Bacterial colonies were suspended in 0.85% NaCl solution (Axon Lab AG, Baden, Switzerland) to reach an OD value of 0.5 (DensiCHECK PLUS, Biomérieux, Genève, Switzerland), corresponding to approximately 1–1.5 × 10^8 cell/ml. The minimum inhibitory concentration (MIC) of cathelicidins was determined by the broth microdilution method as previously described ([25]). Bacteria were further diluted to approximately 1 × 10^5 cells/ml in cation-adjusted Mueller-Hinton (MH) broth (Thermo Fisher Scientific). Several twofold peptide dilutions (40–0.3 µM) were prepared in a volume of 50 µl MH II broth (Becton Dickinson AG) in a round-bottom 96-well plate. Finally, 50 µl of 10^5 cells/ml were added to the peptide dilutions to reach a final concentration of 5 × 10^4 cells/ml.

[2] = system: Streptococcus uberis ALP8092
Source text: as §1

Escherichia coli 9217/10 = system: Escherichia coli 9217/10
Source text: as §1

[3] = system: Staphylococcus aureus M3850
Source text: as §1

[4] = system: Streptococcus uberis M100/11
Source text: as §1

[5] = system: Staphylococcus aureus M3842
Source text: as §1

[6] = system: Streptococcus uberis BL246
Source text: as §1

[7] = system: Mx1 in primary bovine turbinate epithelial cells (BT cells); test: Mx1 induction in BT cells (western blot), nucleic acid sensing; conditions: poly(I:C) alone, titration, 20 h, western blot (Figure S3)
Method: Primary bovine turbinate epithelial cells (BT cells) were obtained as previously described ([26]) and the cultures maintained in DMEM supplemented with 10% FBS, non-essential amino acids (NEAA), neomycin/bacitracin, penicillin/streptomycin (stock solutions purchased from Biochrom), and GlutaMAX (Thermo Fisher Scientific). BT cells were plated in 24-well plates at 50,000 cells/well and incubated for 18 h at 37°C in 5% CO2. For induction of Mx, cathelicidins were mixed with 100 ng/ml of poly(I:C) in a final volume of 1 ml, incubated for 10 min at room temperature, and then added to the cells. Alternatively, different dilutions of neutrophil-derived supernatants were mixed with poly(I:C) at 100 ng/ml in complete medium (DMEM with 10% FBS, NEAA, neomycin/bacitracin, penicillin/streptomycin, and GlutaMAX). Positive controls for Mx1 induction included cell treatment with 100 ng/ml of bovine rIFN-α and 1 µg/ml of poly(I:C). Cultures were further incubated at 37°C for 20 h. […]
Figure 5 Bovine myeloid antimicrobial peptide (BMAP)-27, sBAMP-27, BMAP-28, BMAP-34, and Bac1 promote nucleic acid sensing in primary epithelial cells. […] After 20 h incubation, Mx1 and β-actin were detected by western blot. […] After 20 h of culture, Mx1 and β-actin were detected by western blot. […]

bovine neutrophils = test: ROS in neutrophils (CM-H2DCFDA flow cytometry); conditions: 100 ng/ml PMA for 10 min, then 1 h culture; three animals in duplicates
Method: Bovine neutrophil granulocytes were isolated as previously described with a few adaptations ([20], [21]). Bovine blood sampling was performed in compliance with the Swiss animal protection law and approved by the animal welfare committee of the Canton of Bern, Switzerland, license number BE102/15. Briefly, 200 ml of blood was drawn from the jugular vein of cows at the Clinic for Ruminants (Vetsuisse Faculty, University of Bern, Switzerland) and was directly mixed with citrate-based anti-coagulant Alsever’s solution (1.55 mM of C6H12O6, 408 mM of Na3C6H5O7⋅2H2O, 1.078 mM of NaCl, and 43 mM of C6H8O7, pH 6.2). […] Neutrophils were recovered in the pellet, washed once with PBS/EDTA, counted in Trypan blue solution, and resuspended at 5 × 10^7 cells/ml in RPMI 1640 medium (Biochrom GmbH, Berlin, Germany). […] Aliquots of 5 × 10^6 neutrophils per tube were used to quantify ROS. […]
Figure 6 Cathelicidins can be detected in the supernatants of phorbol myristate acetate (PMA)-activated neutrophils. […] (A) Forward and side scatter characteristics of neutrophils stimulated with PMA or left unstimulated were evaluated by flow cytometry (left). […] (B) Histogram overlay of CM-H2DCFDA fluorescence as an indicator of ROS formation. […]

Molecule | MIC [1] [µM] | MIC [2] [µM] | MIC (Escherichia coli 9217/10) [µM] | MIC [3] [µM] | MIC [4] [µM] | MIC [5] [µM] | MIC [6] [µM] | concentration of poly(I:C) below which induction of Mx1 was not detectable [7] [ng/mL] | fluorescence intensity of CM-H2DCFDA (ROS indicator) compared to unstimulated neutrophils (bovine neutrophils)
RFRPPIRRPPIRPPFYPPFRPPIRPPIFPPIRPPFRPPLGPFP [Bac5] | >20 | 20.00 ± 0 | >20 | >20 | 2.78 ± 0.83 | >20 | 6.11 ± 2.2 | – | –
GGLRSLGRKILRAWKKYGPIIVPIIRIG [BMAP-28] | 14.44 ± 5.27 | 10.00 ± 0 | 10.00 ± 0 | 17.78 ± 4.41 | 10.00 ± 0 | 13.33 ± 5 | 10.00 ± 0 | – | –
GLPKLHFRRKKGKLVSFPLKFKFKIRL [sBMAP-27] | 20.00 ± 0 | 8.33 ± 2.5 | 10.00 ± 0 | 17.78 ± 4.41 | 5.00 ± 0 | ≥20 ± 10 | 5.56 ± 1.67 | – | –
Polyinosinic–polycytidylic acid [poly(I:C)] | – | – | – | – | – | – | – | 156 | –
CC[C@H](C)[C@@H]1NC(=O)[C@H](CCCNC(=N)N)NC(=O)[C@@H](NC(=O)[C@H](CC(C)C)NC(=O)[C@@H](N)CCCNC(=N)N)CSSC[C@@H](C(=O)N[C@@H](CCCNC(=N)N)C(=O)O)NC(=O)[C@H](C(C)C)NC(=O)[C@H](CCCNC(=N)N)NC(=O)[C@H]([C@@H](C)CC)NC(=O)[C@H](C(C)C)NC(=O)[C@H](C(C)C)NC1=O [Bac1] (H-RLCRIVVIRVCR-OH; disulfide 3-11) | >20 | ≥20 ± 10 | >20 | ≥20 ± 6.67 | 13.33 ± 5 (≈ 19.8 µg/mL) | >20 | 20.00 ± 0 (≈ 29.7 µg/mL) | – | –
CCCCCCCCCCCCCC(=O)O[C@@H]1[C@@H](C)[C@@]2(O)[C@@H](C=C(CO)C[C@]3(O)C(=O)C(C)=C[C@@H]23)[C@@H]2C(C)(C)[C@]12OC(C)=O [PMA, phorbol myristate acetate] | – | – | – | – | – | – | – | – | significantly higher
GRFKRFRKKFKKLFKKLSPVIPLLHLG [BMAP-27] | 8.33 ± 2.5 | 4.72 ± 0.83 | 2.50 ± 0 | 7.22 ± 2.64 | 2.78 ± 0.83 | 5.00 ± 0 | 4.17 ± 1.25 | – | –
AGLFRRLRDSIRRGQQKILEKARRIGERIKDIFRG [BMAP-34] | 14.44 ± 5.27 | 5.00 ± 0 | 5.00 ± 0 | 10.00 ± 0 | 5.00 ± 0 | 12.22 ± 4.41 | 4.17 ± 1.25 | – | –
